Laboratory results taken from the NIST ThermoML archive (doi:10.1016/j.fluid.2013.12.017).

Experiment: molar heat capacity at constant pressure; xn = mol fraction of the nth substance listed
Details: 101 kPa, Liquid, Small sample (50 mg) DSC

CCC(N)(CO)CO [2-amino-2-ethyl-1,3-propanediol] + O
molar heat capacity at constant pressure [J/K/mol]
Details | x1 = 0.1494 | x1 = 0.3002 | x1 = 0.4502 | x1 = 0.5992 | x1 = 0.7505 | x1 = 0.8989 | x1 = 1
303.15 K | 107.2 | 141.9 | 178.1 | 216.5 | 260.2 | 314.7 | 367.5
308.15 K | 108.6 | 143.7 | 180.3 | 219.2 | 263.4 | 318.5 | 370.5
313.15 K | 110 | 145.5 | 182.5 | 221.9 | 266.6 | 322.3 | 374.1
318.15 K | 111.3 | 147.3 | 184.7 | 224.7 | 269.9 | 325.9 | 378
323.15 K | 112.7 | 149.1 | 186.9 | 227.4 | 273.1 | 329.6 | 381.5
328.15 K | 113.8 | 151 | 189.1 | 230.1 | 276.4 | 333.3 | 385.8
333.15 K | 115.5 | 152.8 | 191.3 | 232.8 | 279.6 | 337 | 389.9
338.15 K | 116.8 | 154.6 | 193.5 | 235.6 | 282.8 | 340.7 | 393.9
343.15 K | 118.3 | 156.5 | 195.7 | 238.3 | 286.1 | 344.4 | 398.6
348.15 K | 119.6 | 158.3 | 197.9 | 241 | 289.3 | 348.3 | 403.1
353.15 K | 121.3 | 160.2 | 200.2 | 243.8 | 292.6 | 352 | 408.2
